The text below walks through data of patent US9193733B2, “Piperidinylcyclobutyl substituted pyrrolopyridine and pyrrolopyrimidine derivatives as JAK inhibitors” (Incyte Corporation, priority 2012, dated 2015).

Common to all, as to format: biochemical
For test [1], the target named is T1, human JAK1 (a.a. 837-1142) catalytic domain (Homo sapiens, UniProt P23458).
T1 construct: human JAK1 (a.a. 837-1142) and JAK2 (a.a. 828-1132); His tag (N); made in house; host or cells: insect cells (baculovirus)
Put plainly: In vitro JAK kinase assay (HTRF, phosphorylation of a biotinylated peptide), JAK1. The settings on record: 1 mM ATP. Summed up:
(§1)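 His-tagged JAK1/JAK2 catalytic domains from baculovirus-infected insect cells phosphorylate 500 nM biotinylated peptide at 1 mM ATP in 50 mM Tris pH 7.8, 100 mM NaCl, 5 mM DTT, 0.01% BSA, 1 h at room temperature. EDTA-stopped; SA-APC/Eu-Py20 HTRF read after 40 min; IC50 determined.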
For orientation: In TR-FRET formats the signal depends on donor and acceptor labels being close together.

Test [2] concerns human JAK1 (a.a. 837-1142) catalytic domain. The test is described as above. The settings on record: ratio of JAK2 IC50 to JAK1 IC50, 1 mM ATP. Summed up:
as §1

The target in test [3] is T2, human JAK2 (a.a. 828-1132) catalytic domain (Homo sapiens, UniProt O60674).
T2 construct: human JAK1 (a.a. 837-1142) and JAK2 (a.a. 828-1132); His tag (N); made in house; host or cells: insect cells (baculovirus)
The experiment in a line: In vitro JAK kinase assay (HTRF, phosphorylation of a biotinylated peptide), JAK2. The settings on record: 1 mM ATP. Summed up: as §1

Some results are limits rather than exact numbers.

T1 sequence (P23458 849-1154): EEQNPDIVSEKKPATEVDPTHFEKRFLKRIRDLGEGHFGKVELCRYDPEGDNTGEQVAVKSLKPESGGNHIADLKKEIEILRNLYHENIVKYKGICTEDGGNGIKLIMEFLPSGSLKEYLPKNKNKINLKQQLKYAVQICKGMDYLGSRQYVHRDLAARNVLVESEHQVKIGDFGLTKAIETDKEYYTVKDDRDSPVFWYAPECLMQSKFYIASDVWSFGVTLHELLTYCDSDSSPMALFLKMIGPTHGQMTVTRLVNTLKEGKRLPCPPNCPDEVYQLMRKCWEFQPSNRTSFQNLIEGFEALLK
T2 sequence (O60674 828-1132): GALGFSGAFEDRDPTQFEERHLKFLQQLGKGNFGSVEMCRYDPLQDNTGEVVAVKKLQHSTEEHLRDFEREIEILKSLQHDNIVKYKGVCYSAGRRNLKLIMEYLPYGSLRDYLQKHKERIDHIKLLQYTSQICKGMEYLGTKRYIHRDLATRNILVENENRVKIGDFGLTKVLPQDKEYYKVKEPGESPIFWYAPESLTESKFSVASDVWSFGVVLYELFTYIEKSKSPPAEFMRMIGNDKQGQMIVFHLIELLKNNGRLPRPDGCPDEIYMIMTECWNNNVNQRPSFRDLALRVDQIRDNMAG

For `CC1(C)CN(Cc2cc(NC3CCN([C@H]4C[C@](CC#N)(n5cc(-c6ncnc7[nH]ccc67)cn5)C4)CC3)nc(C(F)(F)F)c2)C1` [Example 35, {trans-3-(4-{[4-[(3,3-dimethylazetidin-1-yl)methyl]-6-(trifluoromethyl)pyridin-2-yl]amino}piperidin-1-yl)-1-[4-(7H-pyrrolo[2,3-d]pyrimidin-4-yl)-1H-pyrazol-1-yl]cyclobutyl}acetonitrile], the figures for the half-inhibitory concentration (IC50) in test [1] and in test [3] were less than 20 nM and 20 to 150 nM, respectively. Also, the JAK2/JAK1 in test [2] is recorded as more than 10.

Broadly, the IC50 is the concentration that inhibits the measured activity by half.
